Data set [1] can be described thus: Human Liver Microsomal Stability. It is filed as in vitro ADME. To be noted: both sexes, pooled liver microsomes, 1 μM compound. The procedure:
Metabolic stability was measured by determining the rate of disappearance of compound in the presence of human liver microsomal preparations, as quantified by liquid chromatography mass-spectrometry and […] mass-spectrometry (LC-MS/MS).
Metabolic stability of test compounds was measured by determination of the rate of disappearance of the compound when incubated in the presence of human liver microsomes. Liver microsomes are prepared from the endoplasmic reticulum of hepatocytes and are the primary source of the most important enzymes (cytochrome P450s) involved in drug metabolism. Study of drug stability in the presence of liver microsomes is accepted as a valuable model permitting rapid prediction of in vivo drug stability.
Human liver microsomes were obtained from a commercial source. Test compounds (1 μM) were incubated with pooled liver microsomes (male and female). Samples were incubated for a 60 minute period and removed at up to 6 time points and analysed by LC-MS/MS for the presence/amount of test compounds.
Microsomes (final protein concentration 0.25 or 0.5 mg/mL), 0.1 M phosphate buffer pH 7.4, and test compound (final concentration 1 μM; diluted from 10 mM stock solution to give a final DMSO concentration of 0.1%) were incubated at 37° C. prior to the addition of Nicotinamide adenine dinucleotide phosphate (NADPH, final concentration 1 mM) to initiate the reaction. The final incubation volume was 100 μL. A control incubation was included for each compound tested, where 0.1 M phosphate buffer pH 7.4 was added instead of NADPH. […]
Each compound was incubated for 0, 5, 15, 30, 45 or 60 minutes. The reactions were stopped by the addition of 100 μL ice-cold acetonitrile containing internal standard (0.001 mM glipizide) at the appropriate time points. The incubation plates were centrifuged at 4000 rpm for 15 minutes at 4° C. to precipitate the protein and 0.1 mL aliquots were analysed using LC-MS/MS, with the conditions shown in the following table.
From a plot of the natural logarithm of the peak area ratio (i.e., the ratio of compound peak area:internal standard peak area) against time, the gradient of the line was determined.
(Microsomes from liver hold many membrane-bound enzymes, among them those of drug oxidation.)

In data set [2] the test system is IL-6 release from LPS-stimulated Thp1 macrophages. As to the kind of experiment: Thp1 Macrophage IL-6 Release Assay. Format: cell-based. To be noted: Homo sapiens. The source says: Anti-inflammatory effects were further characterised by assessing the production of interleukin-6 (IL-6) by human Thp-1 derived macrophages stimulated with a pro-inflammatory stimulus bacterial lipopolysaccharide (LPS). LPS acts with a cell-surface receptor, Toll-like receptor-4 to activate the NFκB and IRF signalling pathways to produce IL-6. The reduction of IL—in this stimulated assay is indicative of anti-inflammatory effects with utility in the treatment of conditions in which IL-6 production is aberrant.
In vitro potency of test compounds in human cells was determined by incubation with Thp1 macrophages and subsequent stimulation with an inflammatory stimulus (bacterial lipopolysaccharide (LPS)) followed by measurement of cellular interleukin-6 (IL-6) release.
Thp1 cells were plated at a concentration of 1×10^5 cells/well or 1.7×10^5 cells/well in 500 μL or 150 μL RPMI complete media containing 1% penicillin-streptomycin and 10% heat inactivated foetal bovine serum in 24-well plates or 96-well plates, respectively and allowed to adhere overnight. The following day, the cells were stimulated with phorbol myristic acid (PMA) at a final concentration of 100 nM (24-well plates) or 200 nM (96-well plates) to induce differentiation and maintained for up to 8 days with a medium change at 5 days if cells were cultured to 8 days. Test compounds were prepared as […] solutions in DMSO and then serially diluted in DMSO prior to dilution in culture medium.
The diluted compounds were added to the cultures 1 hour prior to stimulation with 100 ng/mL LPS. Following a 16 or 18 hour incubation at 37° C./5% CO2, the cell culture medium was collected and assayed for human IL-6 levels using the human IL-6 duo-set ELISA kit (R&D Systems). The average results for each test compound (n=3) were expressed as a percent (%) of the average control value. The average values across the concentrations tested were then plotted and the IC50 for the inhibition of IL-6 was calculated by fitting the data to a 4-parameter IC50 equation using software from Grafit version 6.0.12 (Erithacus Software Ltd., by Dr Robin Leatherbarrow) or GraphPad Prism version 5.04 for Windows (GraphPad Software, La Jolla, Calif., USA, www.qraphpad.com). Each experiment was repeated twice and the data are presented as the mean IC50 from both experiments.

Setting [3] is: pH 7.4, human liver microsomes 0.25 mg/mL protein, 5 time points 0-60 min, one replicate, read-out: T1/2 (1).
The mark [4] stands for this setting: THP-1, 1 × 10^5 cells/well, 24-well plates, 8 days, 6 point curve, IL6 measured 16 hours after LPS, read-out: IC50 (1).
The mark [5] stands for this setting: THP-1, 1.7 × 10^5 cells/well, 96-well plates, 3 days, 9 point curve, IL6 measured 18 hours after LPS, read-out: IC50 (2).
The mark [6] stands for this setting: pH 7.4, human liver microsomes 0.5 mg/mL protein, 6 time points 0-60 min, two replicates, read-out: T1/2 (2).

Like-named read-outs stand apart in the source and are kept apart here.

As for `Cc1cc(S(=O)(=O)NC2CCC(C)(O)CC2)ccc1-c1ccc(F)cc1F` (single isomer, unassigned) [REF001, reference compound], the half-life at 1 μM in data set [1] (setting [3]) came to 0.717 h.
Same read-out and setting: as for `Cc1cc(S(=O)(=O)N[C@H]2CC[C@H](O)CC2)ccc1-c1ccc(F)cc1F` [ABD735], the figure is 8.73 h.
For `C[C@]1(O)CC[C@H](NS(=O)(=O)c2ccc(-c3ncc(F)cc3F)cc2)CC1` [HMC-N-02-A, 4-(3,5-Difluoropyridin-2-yl)-N-((1r,4r)-4-hydroxy-4-methylcyclohexyl)benzenesulfonamide], in data set [1] (setting [3]), the half-life at 1 μM was found to be 6.12 h. The results for the IC50 in data set [2] (setting [4]) and in data set [2] (setting [5]) were 150 nM and 290 nM, respectively.
For `C[C@]1(O)CC[C@H](NS(=O)(=O)c2ccc(-c3ccc(Cl)cc3C#N)cc2)CC1` [HMC-C-01-A, 4′-Chloro-2′-cyano-N-((1r,4r)-4-hydroxy-4-methylcyclohexyl)biphenyl-4-sulfonamide] the same measures were 1.37 h, 40 nM and 180 nM.
On to `C[C@]1(O)CC[C@@H](NS(=O)(=O)c2ccc(-c3ccc(F)cc3C(F)(F)F)cc2)CC1` [HMC-C-02-B, 4′-Fluoro-N-((1s,4s)-4-hydroxy-4-methylcyclohexyl)-2′-(trifluoromethyl)-[1,1′-biphenyl]-4-sulfonamide], for which, in data set [1] (setting [6]), the half-life at 1 μM is 0.3 h. Besides, the IC50 (in general, the concentration that gives 50% inhibition) in data set [2] (setting [5]) came to 290 nM.
Take `C[C@]1(O)CC[C@H](NS(=O)(=O)c2ccc(-c3ncc(Cl)cc3Cl)cc2)CC1` [HMC-N-03-A, 4-(3,5-Dichloropyridin-2-yl)-N-((1r,4r)-4-hydroxy-4-methylcyclohexyl)benzenesulfonamide]: in data set [1] (setting [3]), the half-life at 1 μM was 4.3 h. In addition, in data set [2] (setting [4]), the half-inhibitory concentration (IC50) was 50 nM.
On to `C[C@]1(O)CC[C@@H](NS(=O)(=O)c2ccc(-c3ncc(F)cc3F)c(F)c2)CC1` [HMC-N-01-B, 4-(3,5-Difluoropyridin-2-yl)-3-fluoro-N-((1s,4s)-4-hydroxy-4-methylcyclohexyl)benzenesulfonamide], for which the half-life at 1 μM in data set [1] (setting [6]) turned out to be 2.12 h. The IC50 in data set [2] (setting [5]) was 30 nM.
As for `O=S(=O)(N[C@H]1CC[C@H](O)CC1)c1ccc(-c2ncc(Cl)cc2Cl)cc1` [ABD836, reference compound], the half-life at 1 μM in data set [1] (setting [3]) is above 15 h.
In the case of `C[C@]1(O)CC[C@H](NS(=O)(=O)c2ccc(-c3ccc(F)cc3F)cc2)CC1` [ABD900, reference compound], the half-life at 1 μM in data set [1] (setting [6]) worked out at 1.45 h.
With `C[C@]1(O)CC[C@@H](NS(=O)(=O)c2ccc(-c3ccc(F)cc3F)cc2)CC1` [ABD899, reference compound], the half-life at 1 μM in data set [1] (setting [3]) is 1.2 h; in data set [1] (setting [6]), 1.75 h.
As for `C[C@]1(O)CC[C@H](NS(=O)(=O)c2ccc(-c3ccc(F)cc3C(F)(F)F)cc2)CC1` [HMC-C-02-A, 4′-Fluoro-N-((1r,4r)-4-hydroxy-4-methylcyclohexyl)-2′-(trifluoromethyl)biphenyl-4-sulfonamide], the half-life at 1 μM in data set [1] (setting [3]) was determined as 0.917 h. The values for the half-maximal inhibitory concentration (IC50) in data set [2] (setting [4]) and in data set [2] (setting [5]) were 1 nM and 970 nM, respectively.
Consider `C[C@]1(O)CC[C@@H](NS(=O)(=O)c2ccc(-c3c(F)cc(F)cc3F)cc2)CC1` [HMC-C-03-B, 2′,4′,6′-Trifluoro-N-((1s,4s)-4-hydroxy-4-methylcyclohexyl)-[1,1′-biphenyl]-4-sulfonamide], for which, in data set [1] (setting [6]), the half-life at 1 μM was found to be 0.8 h. Moreover, the half-maximal inhibitory concentration (IC50) in data set [2] (setting [5]) turned out to be 20 nM.
For `C[C@]1(O)CC[C@@H](NS(=O)(=O)c2ccc(-c3ncc(F)cc3F)cc2)CC1` [HMC-N-02-B, 4-(3,5-Difluoropyridin-2-yl)-N-((1s,4s)-4-hydroxy-4-methylcyclohexyl)benzenesulfonamide] the same measures were 2.8 h and 20 nM.
In the case of `C[C@]1(O)CC[C@H](NS(=O)(=O)c2ccc(-c3c(F)cc(F)cc3F)cc2)CC1` [HMC-C-03-A, 2′,4′,6′-Trifluoro-N-((1r,4r)-4-hydroxy-4-methylcyclohexyl)biphenyl-4-sulfonamide], the half-life at 1 μM in data set [1] (setting [3]) stood at 1.4 h. Also, the 50% inhibitory concentration (IC50) worked out at 4 nM in data set [2] (setting [4]) and 50 nM in data set [2] (setting [5]).
The corresponding values for `C[C@]1(O)CC[C@H](NS(=O)(=O)c2ccc(-c3ncc(F)cc3F)c(F)c2)CC1` [HMC-N-01-A, 4-(3,5-Difluoropyridin-2-yl)-3-fluoro-N-((1r,4r)-4-hydroxy-4-methylcyclohexyl)benzenesulfonamide] are 2.92 h, 130 nM and 280 nM.
Take `C[C@]1(O)CC[C@@H](NS(=O)(=O)c2ccc(-c3ccc(F)cc3F)c(F)c2)CC1` [HMC-C-04-B, 2,2′,4′-Trifluoro-N-((1s,4s)-4-hydroxy-4-methylcyclohexyl)-[1,1′-biphenyl]-4-sulfonamide]: in data set [1] (setting [6]), the half-life at 1 μM was 1.78 h. The 50% inhibitory concentration (IC50) in data set [2] (setting [5]) amounted to 30 nM.
On to `C[C@]1(O)CC[C@@H](NS(=O)(=O)c2ccc(-c3ccc(Cl)cc3C#N)cc2)CC1` [HMC-C-01-B, 4′-Chloro-2′-cyano-N-((1s,4s)-4-hydroxy-4-methylcyclohexyl)-[1,1′-biphenyl]-4-sulfonamide], for which, in data set [1] (setting [6]), the half-life at 1 μM worked out at 1.17 h. Further, the half-maximal inhibitory concentration (IC50) in data set [2] (setting [5]) came out at 60 nM.
Regarding `C[C@]1(O)CC[C@H](NS(=O)(=O)c2ccc(-c3ncc(Cl)cc3Cl)c(F)c2)CC1` [HMC-N-04-A, 4-(3,5-Dichloropyridin-2-yl)-3-fluoro-N-((1r,4r)-4-hydroxy-4-methylcyclohexyl)benzenesulfonamide], in data set [1] (setting [3]), the half-life at 1 μM came to 2.6 h.
On to `C[C@]1(O)CC[C@H](NS(=O)(=O)c2ccc(-c3ccc(F)cc3F)c(F)c2)CC1` [HMC-C-04-A, 2,2′,4′-Trifluoro-N-((1r,4r)-4-hydroxy-4-methylcyclohexyl)-[1,1′-biphenyl]-4-sulfonamide], for which the half-life at 1 μM in data set [1] (setting [6]) stood at 1.67 h. Also, the IC50 in data set [2] (setting [5]) amounted to 130 nM.
With `C[C@]1(O)CC[C@@H](NS(=O)(=O)c2ccc(-c3ncc(Cl)cc3Cl)cc2)CC1` [HMC-N-03-B, 4-(3,5-Dichloropyridin-2-yl)-N-((1s,4s)-4-hydroxy-4-methylcyclohexyl)benzenesulfonamide], the half-life at 1 μM in data set [1] (setting [6]) came out at 1.17 h. For the same molecule, in data set [2] (setting [5]), the IC50 was 20 nM.

These data come from patent publication US9624167B2, “N-(4-hydroxy-4-methyl-cyclohexyl)-4-phenyl-benzenesulfonamides and N-(4-hydroxy-4-methyl-cyclohexyl)-4-(2-pyridyl)benzenesulfonamides and their therapeutic use” (PIMCO 2664 LIMITED, priority 2013, dated 2017).
